Each structure is given as a SMILES string.

This test deals with Iba-1. Description: Iba-1 expression in VM-M3 brain tumour tissue (immunohistochemistry, western blot). In kind it is in vivo, mouse (VM/Dk). The note with it: DON treated brain tumour tissue; immunohistochemistry and western blot. The protocol: FIGS. 6A-6C. Restricted Ketogenic diet with DON reduces the Iba-1 expression in the VM-M3 brain tumour tissue. Immunohistochemistry (IHC) of Iba-1 was performed in formalin fixed brain tissues as described in Methods. […] Western blot analysis of Iba-1 protein expression in the tumours indicates a decrease in the expression of Iba-1 in the DON treated tumours (n=3 mouse tumour brain tissue) in comparison to SD-UR (n=3 mouse tumour brain tissue). A decrease in expression was also seen for KD-R mice (n=2 mouse tumour brain tissue). Normal brain (NB) was used as a negative control tissue, FIGS. 6B and 6C.
Iba-1 protein expression was analyzed in the VM-M3 brain tumour tissue by immunohistochemistry and western blot. Iba-1 was heavily expressed in VM-M3 tumour and normal microglia/macrophages, as we described previously^37. The KD-R reduced the expression of Iba-1 as shown in both immunohistochemistry and western blot (FIGS. 6A and 6B). […]
Approximately 100 μg of total protein from each tissue sample was denatured with SDS-PAGE sample buffer [63 mmol/L Tris-HCl (pH 6.8), 10% glycerol, 2% SDS, 0.0025% bromphenol blue, and 5% 2-mercaptoethanol] and was resolved by SDS-PAGE on 4% to 12% Bis-Tris gels (Invitrogen). […] Each membrane was stripped and reprobed for β-actin as an internal loading control and the ratio of the Iba-1 to β-actin was analyzed by scanning densitometry (FluorChem 8900 Software).

For `[N-]=[N+]=CC(=O)CC[C@H](N)C(=O)O` [DON, 6-diazo-5-oxo-L-norleucine], the Iba-1 expression entry is listed as “significant reduction”.

The record behind these values is patent US20200316096A1, “COMBINATION OF DIET AND DRUG THERAPY FOR TREATING CANCER” (Trustees of Boston College, priority 2019, published 2020).
